Test results published in ChEMBL document CHEMBL1201862, “PubChem BioAssay data set” (2004).
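Cells were grown in 96-well plates and exposed to each compound for 48 hours at five concentrations; endpoints were interpolated linearly between bracketing concentrations, or set to the highest concentration if not reached. GI50: concentration for 50% inhibition of growth.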 Calls of active or inactive are those of the source. No stated cut-off is given here; in the data, active = GI50 up to about 1.1 µM and inactive = higher.

Columns and labels:
Assay in all cases: NCI-60 cell line screen, 48 h
786-0 = test system: 786-0
A498 = test system: A498
A549 = test system: A549
ACHN = test system: ACHN
BT-549 = test system: BT-549
CAKI-1 = test system: CAKI-1
CCRF-CEM = test system: CCRF-CEM
COLO 205 = test system: COLO 205
DU-145 = test system: DU-145
EKVX = test system: EKVX
HCC 2998 = test system: HCC 2998
HCT-116 = test system: HCT-116
HCT-15 = test system: HCT-15
HL-60 = test system: HL-60
HOP-62 = test system: HOP-62
HOP-92 = test system: HOP-92
HT-29 = test system: HT-29
Hs-578T = test system: Hs-578T
IGROV-1 = test system: IGROV-1
K562 = test system: K562
KM12 = test system: KM12
LOX IMVI = test system: LOX IMVI
M14 = test system: M14
MCF7 = test system: MCF7
MDA-MB-231 = test system: MDA-MB-231
MDA-MB-435 = test system: MDA-MB-435
MDA-N = test system: MDA-N
MOLT-4 = test system: MOLT-4
NCI-H23 = test system: NCI-H23
NCI-H460 = test system: NCI-H460
NCI-H522 = test system: NCI-H522
NCI/ADR-RES = test system: NCI/ADR-RES
OVCAR-3 = test system: OVCAR-3
OVCAR-4 = test system: OVCAR-4
OVCAR-5 = test system: OVCAR-5
OVCAR-8 = test system: OVCAR-8
PC-3 = test system: PC-3
RXF 393 = test system: RXF 393
SF-268 = test system: SF-268
SF-295 = test system: SF-295
SF-539 = test system: SF-539
SK-MEL-28 = test system: SK-MEL-28
SK-MEL-2 = test system: SK-MEL-2
SK-MEL-5 = test system: SK-MEL-5
SN12C = test system: SN12C
SNB-19 = test system: SNB-19
SNB-75 = test system: SNB-75
SR = test system: SR
SW-620 = test system: SW-620
T47D = test system: T47D
TK-10 = test system: TK-10
U-251 = test system: U-251
UACC-257 = test system: UACC-257
UACC-62 = test system: UACC-62
UO-31 = test system: UO-31
Malme-3M = test system: Malme-3M
NCI-H226 = test system: NCI-H226
RPMI-8226 = test system: RPMI-8226
SK-OV-3 = test system: SK-OV-3

CN(C(=O)C12C3(C(=O)O)C4C5(C(=O)O)C3C1(C(=O)O)C5C42C(=O)O)C(C)(C)C (stereo not drawn)
GI50 (786-0): > 100 µM (inactive) | GI50 (A498): > 100 µM (inactive) | GI50 (A549): > 100 µM (inactive) | GI50 (ACHN): > 100 µM (inactive) | GI50 (BT-549): > 100 µM (inactive) | GI50 (CAKI-1): > 100 µM (inactive) | GI50 (CCRF-CEM): > 100 µM (inactive) | GI50 (COLO 205): > 100 µM (inactive) | GI50 (DU-145): > 100 µM (inactive) | GI50 (EKVX): > 100 µM (inactive) | GI50 (HCC 2998): > 100 µM (inactive) | GI50 (HCT-116): > 100 µM (inactive) | GI50 (HCT-15): > 100 µM | GI50 (HL-60): > 100 µM (inactive) | GI50 (HOP-62): > 100 µM (inactive) | GI50 (HOP-92): > 100 µM (inactive) | GI50 (HT-29): > 100 µM (inactive) | GI50 (Hs-578T): > 100 µM (inactive) | GI50 (IGROV-1): > 100 µM (inactive) | GI50 (K562): > 100 µM (inactive) | GI50 (KM12): > 100 µM (inactive) | GI50 (LOX IMVI): > 100 µM (inactive) | GI50 (M14): > 100 µM (inactive) | GI50 (MCF7): > 100 µM (inactive) | GI50 (MDA-MB-231): > 100 µM (inactive) | GI50 (MDA-MB-435): > 100 µM (inactive) | GI50 (MDA-N): > 100 µM (inactive) | GI50 (MOLT-4): > 100 µM (inactive) | GI50 (NCI-H23): > 100 µM (inactive) | GI50 (NCI-H460): > 100 µM (inactive) | GI50 (NCI-H522): > 100 µM (inactive) | GI50 (NCI/ADR-RES): > 100 µM (inactive) | GI50 (OVCAR-3): > 100 µM (inactive) | GI50 (OVCAR-4): > 100 µM (inactive) | GI50 (OVCAR-5): > 100 µM (inactive) | GI50 (OVCAR-8): > 100 µM (inactive) | GI50 (PC-3): > 100 µM (inactive) | GI50 (RXF 393): > 100 µM (inactive) | GI50 (SF-268): > 100 µM (inactive) | GI50 (SF-295): > 100 µM (inactive) | GI50 (SF-539): > 100 µM (inactive) | GI50 (SK-MEL-28): > 100 µM (inactive) | GI50 (SK-MEL-2): > 100 µM (inactive) | GI50 (SK-MEL-5): > 100 µM (inactive) | GI50 (SN12C): > 100 µM (inactive) | GI50 (SNB-19): > 100 µM (inactive) | GI50 (SNB-75): 0.442 µM (active) | GI50 (SR): > 100 µM (inactive) | GI50 (SW-620): > 100 µM (inactive) | GI50 (T47D): > 100 µM (inactive) | GI50 (TK-10): > 100 µM (inactive) | GI50 (U-251): > 100 µM (inactive) | GI50 (UACC-257): > 100 µM (inactive) | GI50 (UACC-62): > 100 µM (inactive) | GI50 (UO-31): > 100 µM (inactive)

Nc1nc(Cl)cc(NCC2(CO)CCC(O)C2)n1 (stereo not drawn)
GI50 (786-0): > 100 µM (inactive) | GI50 (A498): > 100 µM (inactive) | GI50 (A549): > 100 µM (inactive) | GI50 (ACHN): > 100 µM (inactive) | GI50 (BT-549): > 100 µM (inactive) | GI50 (CAKI-1): > 100 µM (inactive) | GI50 (CCRF-CEM): > 100 µM (inactive) | GI50 (COLO 205): > 100 µM (inactive) | GI50 (DU-145): > 100 µM (inactive) | GI50 (EKVX): > 100 µM (inactive) | GI50 (HCT-116): > 100 µM (inactive) | GI50 (HCT-15): > 100 µM | GI50 (HL-60): > 100 µM (inactive) | GI50 (HOP-62): > 100 µM (inactive) | GI50 (HOP-92): > 100 µM (inactive) | GI50 (HT-29): > 100 µM (inactive) | GI50 (Hs-578T): > 100 µM (inactive) | GI50 (IGROV-1): > 100 µM (inactive) | GI50 (K562): > 100 µM (inactive) | GI50 (KM12): > 100 µM (inactive) | GI50 (LOX IMVI): > 100 µM (inactive) | GI50 (M14): > 100 µM (inactive) | GI50 (MCF7): > 100 µM (inactive) | GI50 (MDA-MB-231): > 100 µM (inactive) | GI50 (MDA-MB-435): > 100 µM (inactive) | GI50 (MDA-N): > 100 µM (inactive) | GI50 (MOLT-4): > 100 µM (inactive) | GI50 (Malme-3M): > 100 µM (inactive) | GI50 (NCI-H226): > 100 µM (inactive) | GI50 (NCI-H23): > 100 µM (inactive) | GI50 (NCI-H460): > 100 µM (inactive) | GI50 (NCI-H522): > 100 µM (inactive) | GI50 (NCI/ADR-RES): > 100 µM (inactive) | GI50 (OVCAR-3): > 100 µM (inactive) | GI50 (OVCAR-4): > 100 µM (inactive) | GI50 (OVCAR-5): > 100 µM (inactive) | GI50 (OVCAR-8): > 100 µM (inactive) | GI50 (PC-3): > 100 µM (inactive) | GI50 (RPMI-8226): > 100 µM (inactive) | GI50 (RXF 393): > 100 µM (inactive) | GI50 (SF-268): > 100 µM (inactive) | GI50 (SF-295): > 100 µM (inactive) | GI50 (SF-539): > 100 µM (inactive) | GI50 (SK-MEL-28): > 100 µM (inactive) | GI50 (SK-MEL-2): > 100 µM (inactive) | GI50 (SK-MEL-5): > 100 µM (inactive) | GI50 (SK-OV-3): > 100 µM (inactive) | GI50 (SN12C): > 100 µM (inactive) | GI50 (SNB-19): > 100 µM (inactive) | GI50 (SNB-75): > 100 µM (inactive) | GI50 (SR): > 100 µM (inactive) | GI50 (SW-620): > 100 µM (inactive) | GI50 (T47D): > 100 µM (inactive) | GI50 (TK-10): > 100 µM (inactive) | GI50 (U-251): > 100 µM (inactive) | GI50 (UACC-257): > 100 µM (inactive) | GI50 (UACC-62): > 100 µM (inactive) | GI50 (UO-31): > 100 µM (inactive)
